Results as given in ChEMBL document CHEMBL5321222, “N(14)-substituted evodiamine derivatives as dual topoisomerase 1/tubulin-Inhibiting anti-gastrointestinal tumor agents” (Eur J Med Chem, 2023).
Active and inactive are the calls of the source. No cut-off for these calls is given here.

How the values were obtained:
[1] = tested on: MGC-803; assay: Inhibition of cell […] in human MGC-803 cells incubated for 24 hrs by scratch wound healing assay; format: functional, cell-based; conditions: dose 12.5-50 nM
[2] = tested on: MGC-803; assay: Inhibition of colony formation in human MGC-803 cells incubated for 7 days by crystal violet staining based assay; format: functional, cell-based; conditions: dose 10-90 nM, time 7.0 day
[3] = target: Tubulin; assay: (§1) Inhibition of tubulin polymerization (unknown origin) measured every minute; format: protein-complex assay, Homo sapiens
[4] = target: T1, Tubulin (Homo sapiens) (UniProt P68371+Q9H4B7+P0DPH7+P68366+Q13509+Q71U36+P04350+Q3ZCM7+P07437+P68363+Q9BQE3+Q6PEY2+Q13885+Q9BVA1+Q9BUF5); assay: as §1; format: protein-complex assay
[5] = tested on: MGC-803; assay: Antiproliferative activity against human MGC-803 cells assessed as reduction in cell viability incubated for 72 hrs by MTT assay; format: functional, cell-based; conditions: MGC-803, 72 h
[6] = tested on: RKO; assay: Induction of apoptosis in human RKO cells assessed as early apoptotic cells at 0.2 uM incubated for 24 hrs by propidium iodide and Annexin V/FITC staining based flow cytometry assay (reference value: 0.16%); format: functional
[7] = tested on: RKO; assay: Inhibition of colony formation in human RKO cells at 90 nM incubated for 7 days by crystal violet staining based assay; format: functional, cell-based; conditions: time 7.0 day
[8] = tested on: MGC-803; assay: Inhibition of cell […] in human MGC-803 cells at 5 nM incubated for 24 hrs by scratch wound healing assay; format: functional, cell-based
[9] = tested on: MGC-803; assay: Inhibition of colony formation in human MGC-803 cells at 90 nM incubated for 7 days by crystal violet staining based assay; format: functional, cell-based; conditions: time 7.0 day
[10] = tested on: MGC-803; assay: Induction of apoptosis in human MGC-803 cells assessed as early apoptotic cells at 0.1 uM incubated for 24 hrs by propidium iodide and Annexin V/FITC staining based flow cytometry assay (reference value: 1.85%); format: functional
[11] = tested on: RKO; assay: Antiproliferative activity against human RKO cells assessed as reduction in cell viability incubated for 72 hrs by MTT assay; format: functional, cell-based
[12] = tested on: RKO; assay: Induction of apoptosis in human RKO cells assessed as late apoptotic cells at 0.2 uM incubated for 24 hrs by propidium iodide and Annexin V/FITC staining based flow cytometry assay (reference value: 0.50%); format: functional
[13] = tested on: SGC-7901; assay: Antiproliferative activity against human SGC-7901 cells assessed as reduction in cell viability incubated for 72 hrs by MTT assay; format: functional, cell-based; conditions: SGC-7901, 72 h
[14] = tested on: SW480; assay: Antiproliferative activity against human SW480 cells assessed as reduction in cell viability incubated for 72 hrs by MTT assay; format: functional, cell-based; conditions: SW480, 72 h
[15] = target: T1, Tubulin (Homo sapiens); assay: Induction of microtubule disruption in human MGC-803 cells assessed as atrophied nucleus at 50 to 200 nM incubated for 24 hrs by laser confocal microscopic analysis; format: cell-based; conditions: dose 50-200 nM
[16] = tested on: MGC-803; assay: Induction of apoptosis in human MGC-803 cells assessed as late apoptotic cells at 0.05 uM incubated for 24 hrs by propidium iodide and Annexin V/FITC staining based flow cytometry assay (reference value: 4.10%); format: functional
[17] = target: T2, DNA topoisomerase 1 (Homo sapiens) (UniProt P11387); assay: Inhibition of topoisomerase 1 (unknown origin) at 50 uM using PBR322 DNA as substrate incubated for 30 mins by agarose gel electrophoresis relative to control
T2 sequence (whole entry): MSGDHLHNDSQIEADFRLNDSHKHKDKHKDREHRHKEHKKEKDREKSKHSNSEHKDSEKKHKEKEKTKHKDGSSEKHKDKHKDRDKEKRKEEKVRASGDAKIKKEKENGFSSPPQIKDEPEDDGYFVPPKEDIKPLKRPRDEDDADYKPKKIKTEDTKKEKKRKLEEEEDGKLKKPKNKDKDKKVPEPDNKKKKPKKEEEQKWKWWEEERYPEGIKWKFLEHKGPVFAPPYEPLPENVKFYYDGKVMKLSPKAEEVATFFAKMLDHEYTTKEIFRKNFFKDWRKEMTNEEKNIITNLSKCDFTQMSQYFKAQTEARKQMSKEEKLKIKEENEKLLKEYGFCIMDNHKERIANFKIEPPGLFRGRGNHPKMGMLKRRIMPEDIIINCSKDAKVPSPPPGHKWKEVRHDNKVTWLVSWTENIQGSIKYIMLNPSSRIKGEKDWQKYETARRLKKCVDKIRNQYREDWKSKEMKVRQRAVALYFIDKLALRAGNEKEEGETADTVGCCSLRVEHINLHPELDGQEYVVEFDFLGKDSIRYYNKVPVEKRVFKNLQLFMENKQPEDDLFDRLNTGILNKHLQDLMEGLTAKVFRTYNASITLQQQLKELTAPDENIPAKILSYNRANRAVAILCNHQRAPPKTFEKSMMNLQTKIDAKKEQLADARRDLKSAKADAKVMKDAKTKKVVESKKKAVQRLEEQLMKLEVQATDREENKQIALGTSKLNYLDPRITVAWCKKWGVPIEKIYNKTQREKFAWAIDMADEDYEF

[18] = tested on: RKO; assay: Induction of apoptosis in human RKO cells assessed as late apoptotic cells at 0.05 uM incubated for 24 hrs by propidium iodide and Annexin V/FITC staining based flow cytometry assay (reference value: 0.50%); format: functional

For `CCCN1c2ccccc2C(=O)N2CCc3c([nH]c4ccccc34)C21` (stereo not drawn), which inhibition [1] is on record?
Its inhibition is “Dose-Dependent Effect”.

And the inhibition [2]?
Its inhibition is “Dose-Dependent Effect”.

And the IC50 [3]?
The IC50 was 5690 nM.

And the inhibition [4]?
Its inhibition is “Dose-Dependent Effect”.

What about the IC50 [5] of the same compound?
The IC50 was 90 nM.

And the Activity [6]?
Its Activity is 14.35%.

And the inhibition [7]?
The inhibition was “Active”.

And the inhibition [8]?
The inhibition was “Active”.

What about the inhibition [9] of the same compound?
The inhibition was “Active”.

What about the Activity [10] of the same compound?
Its Activity is 6.76%.

What about the IC50 [11] of the same compound?
Its IC50 is 200 nM.

What about the Activity [12] of the same compound?
The Activity was 37.67%.

What about the IC50 [13] of the same compound?
Its IC50 is 90 nM.

What about the IC50 [14] of the same compound?
The IC50 was 710 nM.

What about the Activity [15] of the same compound?
Its Activity is “Active”.

What about the Activity [16] of the same compound?
The Activity was 6.84%.

And the inhibition [17]?
Its inhibition is 58.3%.

What about the Activity [18] of the same compound?
The Activity was 21.45%.
